Measured values published in patent publication US9359297B2, “Spirolactam derivatives and uses of same” (H. Lundbeck A/S, priority 2009, dated 2016).

Target: T1, rat metabotropic glutamate receptor 5 (rmGluR5) (Rattus norvegicus, UniProt P31424)
T1 construct: expressed in transfected cells
Assay: Calcium mobilization (FLIPR) assay for negative allosteric modulation, EC80 glutamate, rmGluR5 in HEK 293
Assay type: cell-based
Conditions: HEK293; rmGluR5, inhibition of EC80 glutamate response; read-out: FLIPR maximum inhibition
Experimental: The cDNA for rat metabotropic glutamate receptor 5 (rmGluR5) and the cDNA for human metabotropic glutamate receptor 5 (hmGluR5) were generous gifts from S. Nakanishi (Kyoto University, Kyoto, Japan). The rmGluR5 or hmGluR5 was stably expressed in a HEK 293 cell line and grown in Dulbecco's Modified Eagle Medium (DMEM) (Invitrogen, Carlsbad, Calif.) with supplements (10% bovine calf serum, 4 mM glutamine, 100 units/mL penicillin, 100 μg/mL streptomycin and 0.75 mM G1418) at 37° C., 5% CO2. Twenty-four hours prior to assay, cells were seeded into 384-well black wall microtiter plates coated with poly-D-lysine. Just prior to assay, media was aspirated and cells dye-loaded (25 μL/well) with 3 μM Fluo-4/0.01% pluronic acid in assay buffer (Hank's Balanced Saline Solution (HBSS)): 150 mM NaCl, 5 mM KCl, 1 mM CaCl2, 1 mM MgCl2, plus 20 mM N-2-Hydroxyethylpiperazine-N′-2-ethanesulfonic acid (HEPES), pH 7.4, 0.1% bovine serum albumin (BSA) and 2.5 mM probenicid) for 1 hour in 5% CO2 at 37° C. After excess dye was discarded, cells were washed in assay buffer and layered with a final volume equal to 30 μL/well. Basal fluorescence is monitored in a fluorometric imaging plate reader (FLIPR) (Molecular Devices, Sunnyvale, Calif.) with an excitation wavelength of 488 nm and an emission range of 500 to 560 nm. Laser excitation energy was adjusted so that basal fluorescence readings were approximately 10,000 relative fluorescent units. Cells were stimulated with an EC20 or an EC80 concentration of glutamate in the presence of a compound to be tested, both diluted in assay buffer, and relative fluorescent units were measured at defined intervals (exposure=0.6 sec) over a 3 min period at room temperature. Basal readings derived from negative controls were subtracted from all samples. Maximum change in fluorescence was calculated for each well. Concentration-response curves derived from the maximum change in fluorescence were analyzed by nonlinear regression (Hill equation). A negative modulator can be identified from these concentration-response curves if a compound produces a concentration dependent inhibition of the EC80 glutamate response.

T1 sequence (P31424 21-1203): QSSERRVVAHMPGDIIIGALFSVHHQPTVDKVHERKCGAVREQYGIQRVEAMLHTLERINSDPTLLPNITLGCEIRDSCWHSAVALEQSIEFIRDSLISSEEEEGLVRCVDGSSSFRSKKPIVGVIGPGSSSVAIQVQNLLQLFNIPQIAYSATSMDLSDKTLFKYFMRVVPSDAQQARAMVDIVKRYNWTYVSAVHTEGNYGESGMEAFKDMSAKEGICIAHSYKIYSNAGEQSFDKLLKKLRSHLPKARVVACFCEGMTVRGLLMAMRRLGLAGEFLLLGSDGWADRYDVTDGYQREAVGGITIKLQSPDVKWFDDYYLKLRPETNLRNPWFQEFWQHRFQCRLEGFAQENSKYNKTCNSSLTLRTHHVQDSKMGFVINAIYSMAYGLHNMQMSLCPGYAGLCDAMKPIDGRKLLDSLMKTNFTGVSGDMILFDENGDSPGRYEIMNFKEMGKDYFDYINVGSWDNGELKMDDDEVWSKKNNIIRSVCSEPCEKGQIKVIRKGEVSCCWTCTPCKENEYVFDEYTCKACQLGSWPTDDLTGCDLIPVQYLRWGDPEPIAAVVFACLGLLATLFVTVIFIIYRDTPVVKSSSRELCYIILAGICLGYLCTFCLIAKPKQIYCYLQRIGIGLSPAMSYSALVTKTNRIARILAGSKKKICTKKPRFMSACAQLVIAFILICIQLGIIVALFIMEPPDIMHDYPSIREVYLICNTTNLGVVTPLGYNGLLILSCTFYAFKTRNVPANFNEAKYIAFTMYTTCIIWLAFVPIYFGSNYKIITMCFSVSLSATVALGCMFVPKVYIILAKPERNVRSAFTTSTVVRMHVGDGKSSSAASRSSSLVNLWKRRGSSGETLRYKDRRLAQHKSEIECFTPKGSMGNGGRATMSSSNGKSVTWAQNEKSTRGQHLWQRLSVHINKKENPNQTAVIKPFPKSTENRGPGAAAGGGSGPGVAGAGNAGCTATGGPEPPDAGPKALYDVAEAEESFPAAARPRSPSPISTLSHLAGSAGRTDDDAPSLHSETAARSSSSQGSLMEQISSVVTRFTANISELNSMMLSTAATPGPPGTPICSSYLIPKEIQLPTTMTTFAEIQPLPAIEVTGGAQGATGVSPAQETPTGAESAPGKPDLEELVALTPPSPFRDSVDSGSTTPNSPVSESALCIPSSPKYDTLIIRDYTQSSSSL

`Cc1cccc(N2CC[C@]3(CCC[C@H](NC(=O)c4cccc(C)n4)C3)C2=O)c1` (relative stereo) [Example 47, cis-6-Methyl-pyridine-2-carboxylic acid (1-oxo-2-m-tolyl-2-aza-spiro[4.5]dec-7-yl)-amide] showed an Emax of 81 to 99%.

Molecule `N#Cc1cccc(N2CC[C@]3(CCC[C@H](NC(=O)c4cccc(Cl)c4)C3)C2=O)c1` (relative stereo) [Example 16, cis-N-[2-(3-Cyano-phenyl)-1-oxo-2-aza-spiro[4.5]dec-7-yl]-3-chloro-benzamide] has an Emax of 81 to 99%.

For `Cc1cncc(C(=O)N[C@H]2CCC[C@]3(CCN(c4cccc(Cl)c4)C3=O)C2)n1` (relative stereo) [Example 12, cis-6-Methyl-pyrazine-2-carboxylic acid [2-(3-chloro-phenyl)-1-oxo-2-aza-spiro [4.5]dec-7-yl]-amide], the Emax was 81 to 99%.

For `Cc1cccc(C(=O)N[C@H]2CCC[C@]3(CCN(c4ccccc4F)C3=O)C2)n1` (relative stereo) [Example 51, cis-6-Methyl-pyridine-2-carboxylic acid [2-(2-fluoro-phenyl)-1-oxo-2-aza-spiro[4.5]dec-7-yl]-amide], the Emax was 81 to 99%.

`O=C(N[C@H]1CCC[C@]2(CCN(c3cc(F)ccn3)C2=O)C1)c1ccccn1` (relative stereo) [Example 30, cis-Pyridine-2-carboxylic acid [2-(4-fluoro-pyridin-2-yl)-1-oxo-2-aza-spiro[4.5]dec-7-yl]-amide] gave an Emax of 81 to 99%.

In the case of `Cc1ccnc(N2CC[C@]3(CCC[C@H](NC(=O)c4cccc(C)n4)C3)C2=O)c1` (relative stereo) [Example 48, cis-6-Methyl-pyridine-2-carboxylic acid [2-(4-methyl-pyridin-2-yl)-1-oxo-2-aza-spiro[4.5]dec-7-yl]-amide], the Emax is reported as 81 to 99%.

`Cc1cncc(N2CC[C@]3(CCC[C@H](NC(=O)c4ccccn4)C3)C2=O)n1` (relative stereo) [Example 39, cis-Pyridine-2-carboxylic acid [2-(6-methyl-pyrazin-2-yl)-1-oxo-2-aza-spiro [4.5]dec-7-yl]-amide] gave an Emax of 81 to 99%.

`Cc1cccc(C(=O)N[C@H]2CCC[C@]3(CCN(c4ccc(F)cn4)C3=O)C2)n1` (relative stereo) [Example 31, cis-6-Methyl-pyridine-2-carboxylic acid [2-(5-fluoro-pyridin-2-yl)-1-oxo-2-aza-spiro[4.5]dec-7-yl]-amide] gave an Emax of 81 to 99%.

`O=C(N[C@H]1CCC[C@]2(CCN(c3cccc(F)c3)C2=O)C1)c1ccccn1` (racemic) [Example 19, cis-Pyridine-2-carboxylic acid [2-(3-fluoro-phenyl)-1-oxo-2-aza-spiro[4.5]dec-7-yl]-amide] was tested, and the Emax was 81 to 99%.

Molecule `Cc1cccc(C(=O)N[C@H]2CCC[C@]3(CCN(c4cc(F)cc(F)c4)C3=O)C2)n1` (racemic) [Example 42, cis-6-Methyl-pyridine-2-carboxylic acid [2-(3,5-difluoro-phenyl)-1-oxo-2-aza-spiro[4.5]dec-7-yl]-amide] has an Emax of 81 to 99%.

In the case of `O=C(N[C@H]1CCC[C@]2(CCN(c3cc(F)cc(F)c3)C2=O)C1)c1ccccn1` (relative stereo) [Example 54, cis-Pyridine-2-carboxylic acid [2-(3,5-difluoro-phenyl)-1-oxo-2-aza-spiro [4.5]dec-7-yl]-amide], the Emax is reported as 81 to 99%.

With `O=C(N[C@H]1CCC[C@]2(CCN(c3cc(F)ccn3)C2=O)C1)c1cccc(F)c1` (relative stereo) [Example 36, cis-3-Fluoro-N-[2-(4-fluoro-pyridin-2-yl)-1-oxo-2-aza-spiro[4.5]dec-7-yl]-benzamide] the Emax was 81 to 99%.

Molecule `Cc1cccc(C(=O)N[C@H]2CCC[C@]3(CCN(c4ncccc4C)C3=O)C2)n1` (relative stereo) [Example 50, cis-6-Methyl-pyridine-2-carboxylic acid [2-(3-methyl-pyridin-2-yl)-1-oxo-2-aza-spiro[4.5]dec-7-yl]-amide] has an Emax of 81 to 99%.

`N#Cc1cccc(N2CC[C@]3(CCC[C@H](NC(=O)c4ccccn4)C3)C2=O)c1` (relative stereo) [Example 9, cis-Pyridine-2-carboxylic acid [2-(3-cyano-phenyl)-1-oxo-2-aza-spiro[4.5]dec-7-yl]-amide] showed an Emax of 81 to 99%.

`Cc1cncc(C(=O)N[C@H]2CCC[C@]3(CCN(c4cc(F)cc(F)c4)C3=O)C2)n1` (relative stereo) [Example 55, cis-6-Methyl-pyrazine-2-carboxylic acid [2-(3,5-difluoro-phenyl)-1-oxo-2-aza-spiro [4.5]dec-7-yl]-amide] showed an Emax of 81 to 99%.

`Cc1cccc(C(=O)N[C@H]2CCC[C@]3(CCN(c4cncc(C)n4)C3=O)C2)n1` (relative stereo) [Example 40, cis-6-Methyl-pyridine-2-carboxylic acid [2-(6-methyl-pyrazin-2-yl)-1-oxo-2-aza-spiro[4.5]dec-7-yl]-amide] showed an Emax of 81 to 99%.

Molecule `Cc1cccc(N2CC[C@@]3(CCC[C@@H](NC(=O)c4cccc(F)c4)C3)C2=O)n1` [Example 28, 3-Fluoro-N-[(5R,7R)-2-(6-methyl-pyridin-2-yl)-1-oxo-2-aza-spiro[4.5]dec-7-yl]-benzamide] has an Emax of 81 to 99%.

Work on `Cn1ccc(C(=O)N[C@H]2CCC[C@]3(CCN(c4cccc(Cl)c4)C3=O)C2)n1` (relative stereo) [Example 14, cis-1-Methyl-1H-pyrazole-3-carboxylic acid [2-(3-chloro-phenyl)-1-oxo-2-aza-spiro[4.5]dec-7-yl]-amide] yielded an Emax of 81 to 99%.

In the case of `Cc1cccc(C(=O)N[C@H]2CCC[C@]3(CCN(c4ccccc4)C3=O)C2)n1` (relative stereo) [Example 46, cis-6-Methyl-pyridine-2-carboxylic acid (1-oxo-2-phenyl-2-aza-spiro[4.5]dec-7-yl)-amide], the Emax is reported as 81 to 99%.

`Cc1cncc(C(=O)N[C@H]2CCC[C@@]3(CCN(c4cccc(F)c4)C3=O)C2)n1` (relative stereo) [Example 22, trans-6-Methyl-pyrazine-2-carboxylic acid[2-(3-fluoro-phenyl)-1-oxo-2-aza-spiro [4.5]dec-7-yl]-amide] showed an Emax of 81 to 99%.

With `Cc1cccc(C(=O)N[C@H]2CCC[C@]3(CCN(c4cccc(C#N)n4)C3=O)C2)n1` (relative stereo) [Example 43, cis-6-Methyl-pyridine-2-carboxylic acid [2-(6-cyano-pyridin-2-yl)-1-oxo-2-aza-spiro[4.5]dec-7-yl]-amide] the Emax was 81 to 99%.

With `O=C(N[C@H]1CCC[C@]2(CCN(c3cccc(Cl)c3)C2=O)C1)c1cnccn1` (relative stereo) [Example 13, cis-Pyrazine-2-carboxylic acid [2-(3-chloro-phenyl)-1-oxo-2-aza-spiro[4.5]dec-7-yl]-amide] the Emax was 81 to 99%.

Work on `Cc1ccnc(N2CC[C@]3(CCC[C@H](NC(=O)c4ccccn4)C3)C2=O)n1` (relative stereo) [Example 29, cis-Pyridine-2-carboxylic acid [2-(4-methyl-pyrimidin-2-yl)-1-oxo-2-aza-spiro [4.5]dec-7-yl]-amide] yielded an Emax of 81 to 99%.

For `O=C(N[C@H]1CCC[C@]2(CCN(c3ccc(F)cn3)C2=O)C1)c1cccc(F)c1` (relative stereo) [Example 35, cis-3-Fluoro-N-[2-(5-fluoro-pyridin-2-yl)-1-oxo-2-aza-spiro[4.5]dec-7-yl]-benzamide], the Emax was 81 to 99%.

With `Cc1ccc(N2CC[C@]3(CCC[C@H](NC(=O)c4cccc(C)n4)C3)C2=O)nc1` (relative stereo) [Example 49, cis-6-Methyl-pyridine-2-carboxylic acid [2-(5-methyl-pyridin-2-yl)-1-oxo-2-aza-spiro[4.5]dec-7-yl]-amide] the Emax was 81 to 99%.
